Reference: patent US20240148728A1, “NOVEL METHOD TO BLOCK IN[…] DEATH AND IL-1BETA SECRETION CAUSED BY […] UV I[…] GENETIC AND CHEMICAL INHIBITORS OF ZAKA AND THE NLRP1 INFLAMMASOME” (priority 2021, published 2024)

Legend:
[1] = test system: N-TERT cells; assay: Secreted IL1β / inflammasome activation in N-TERT cells; assay type: cell-based, human
Description: To measure secreted cytokine and chemokine levels a human IL1β enzyme linked immunosorbent assay (ELISA) kit (BD, #557953), human IL-18 ELISA kit (MBL, #7620) or an Immune Monitoring 65-Plex Human ProcartaPlex Panel (EPX650-10065-901) were used according to manufacturer's protocols. Further analysis of Luminex or ELISA profiling of samples was performed using heatmap and PCA analysis on Clustervis (biitdotcsdotutdotee/clustvis/) [Somani et al., Proceeding of SSIC (2019)].
The following antibodies were used in this study: cleaved PARP1 (Abclonal, #WH162766), Cleaved CASP3 (Abclonal, #WH154646), Full length GSDMD-FL (Abcam, #ab210070), IL1β p17 specific (CST, #83186S), CARD8 (Abcam, CARD8-NT: ab19485, CARD8-CT: ab241186), DPP9 (Abcam, ab226334), c-Myc (Santa Cruz Biotechnology, #sc-40), HA tag (Santa Cruz Biotechnology, #sc-805), GAPDH (Santa Cruz Biotechnology, #sc-47724), ASC (Adipogen, #AL-177), CASP1 (Santa Cruz Biotechnology, #sc-622), 11_1B (R&D systems, #AF-201), FLAG (SigmaAldrich, #F3165), NLRP1 (R&D systems, #AF6788), IL18 (Abcam ab207324), cleaved GSDMD-NT (Asp275) (Cell Signaling Technology, #36425), RPL31 (Abclonal, #WH162766), CASP7 (Abcam, ab255818), CASP8 (Abcam, ab32397), cleaved CASP3 (Cell Signaling Technology, #9664). All horseradish peroxidase (HRP)— conjugated secondary antibodies were purchased from Jackson Immunoresearch (goat anti-mouse IgG: 115-035-166; goat anti-rabbit IgG: 111-035-144; and donkey anti-goat IgG: 705-005-147). Blue-Native PAGE was carried out using the Native-PAGE system (ThermoFisher) with 10-20 μg of total lysate. For SDS-PAGE using whole cell lysates, cells were resuspended in tris-buffered saline 1% NP-40 with protease inhibitors (Thermo Scientific, #78430). Protein concentration was determined using the Bradford assay (Thermo Scientific, #23200) and […] of protein loaded, a part from cleaved GSDMD-NT visualisation where […] of protein was used. All primary antibodies were used at 250 ng/ml. Visualisation of ASC oligomerization was previously described (Robinson et al., 2020). For analysis of IL1β and IL-18 cleavage in the media by immunoblotting, samples were concentrated using filtered centrifugation (Merck, Amicon Ultra, #UFC5003BIK). Protein samples were run using immunoblotting, and then visualized using a ChemiDoc Imaging system (Bio-Rad). PhosTag SDS-PAGE was carried out using homemade 10% SDS-PAGE gel, with addition of Phos-tag Acrylamide (Wako Chemicals, AAL-107) to a final concentration of 30 μM and manganese chloride(II) (Sigma-Aldrich, #63535) to 60 μM.

[2] = test system: ASC; assay: Phosphorylation of inflammasome adaptor ASC; assay type: cell-based, human; conditions: data not shown
[3] = test system: NLRP1; assay: Ribosome-bound NLRP1, sucrose cushion; assay type: cell-based, human; conditions: N-TERT cell lysates
Description: Crude cellular ribosome fractions were purified by sedimentation through a 30% sucrose cushion or a 10-30% sucrose gradient. Cells were lysed for 20 min in 15 mM Tris, pH 7.5, 0.5% NP-40, 6 mM MgCl2, 300 mM NaCl, with 1× protease inhibitors before centrifugation for 10 min at 12000 g, 4° C. The supernatant was then carefully layered onto a 30% sucrose cushion 30% sucrose in 20 mM Tris, pH 7.5, 2 mM MgCl2, 150 mM KCl and ultra-centrifuged at 34,000 rpm for 24 h using Beckman Coulter Ultracentrifuge, Optima XE. Pellets then washed three times with ice cold PBS and suspended in 100 mM KCl, 5 mM MgCl2, 20 mM HEPES, pH 7.6, 1 mM DTT and 10 mM NH4Cl. Purified ribosome fractions were then analysed by immunoblot.

[4] = test system: 3D human organotypic skin; assay: 3D organotypic skin histology and cleaved GSDMD-NT immunostaining; assay type: cell-based
Description: Organotypic cultures were generated by adapting a previously described protocol (Arnette et al., 2016). Briefly, 2 ml of collagen I (4 mg/ml; Corning, #354249) mixed with 7.5×10^5 human fibroblasts were allowed to polymerize over 1-m1 acellular collagen I in 6-well culture inserts (Falcon, #353102) placed in 6-well deep well plate (Falcon, #355467). After 24 hours, 1×10^6 primary human keratinocytes were seeded into the inserts and kept submerged in a 3:1 DMEM (Hyclone, #SH30243.01) and F12 (Gibco, #31765035) mixture with 10% FBS (Hyclone, #SV30160.03), 100 U/ml penicillin-streptomycin (Gibco, #15140122), 10 μM Y-27632 (Tocris, #1254), 10 ng/ml EGF (Sigma-Aldrich, #E9644), 1×10^−10 M cholera toxin (Enzo, #BML-G117-001), 0.4 μg/ml hydrocortisone (Sigma-Aldrich, #H0888), 0.0243 mg/ml adenine (Sigma-Aldrich, #A2786), 5 μg/ml insulin (Sigma-Aldrich, #12643), 5 μg/ml transferrin (Sigma-Aldrich, #T2036) and 2×10^−9 M 3,3′,5′-triiodo-L-thyronine (Sigma-Aldrich, #T6397). After another 24 hours, the organotypic cultures were then raised at the air-liquid interface and fed with the submerged media (without Y-27632 and EGF) below the insert to induce epidermal differentiation. The air-lifting medium was replaced every 2 days and treatments began 10-14 days after airlifting. Organotypic cultures were then harvested 24 hours after treatment and formalin fixed for 24 hours. Fixed tissues were then embedded into wax for histological purposes.
For immunohistochemistry staining of cleaved N-terminal GSDMD a previously established protocol with modifications was used [Wang et al., Cell 180:941-955.e20 (2020)]. Briefly, 5 μm formalin fixed and paraffin embedded sections were deparaffinized and rehydrated through a series of alcohol. The sections were then rehydrated in an antigen retrieval buffer (Dako, Tris-EDTA, pH 9). Sections were then blocked in goat serum for 20 mins at RT before primary antibody incubated overnight at 4° C. Immunostaining was visualised using DAB substrate and chromogen detection kit (Dako, #K3468). Sections were then counterstained with Myer's Hematoxylin.

[5] = test system: aortic endothelial cells (HAECs); assay: Inflammasome activation and pyroptosis in aortic endothelial cells; assay type: cell-based, human; conditions: ANS 1 μM

## COc1ccc(C[C@H]2NC[C@H](O)[C@H]2OC(C)=O)cc1 [ANS, Anisomycin]
[1]; ZAKα KO N-TERT cells
  IL1β secretion and pyroptotic death in ZAKα KO cells: completely resistant
[1]; ultra-high doses of ANS
  IL1β secretion at high concentration versus lower doses: significant decrease in IL1β secretion as compared to lower doses
[2]
  phosphorylation of ASC: not phosphorylated
[3]
  level of ribosome-bound NLRP1: dramatically increased the level of ribosome-bound NLRP1
[4]; H&E, 24 hours after treatment
  epidermal dyskeratosis: caused striking epidermal dyskeratosis
[4]; immunostaining
  cleaved GSDMD N-terminal fragment at the cell membrane: prominently enriched at the cell membrane
[5]
  canonical inflammasome activation and pyroptosis: underwent canonical inflammasome activation and pyroptosis
